Measured values from patent publication US12091409B2, “Ether linked triazoles as NRF2 activators” (ASTEX THERAPEUTICS LIMITED, priority 2016, dated 2024).
Where a name gives a salt, the structure may show the parent alone.

Assays:
[1] = system: NQO1 specific enzyme activity in BEAS-2B cells (marker for NRF2 activation); experiment: BEAS-2B NQO1 MTT Assay; assay type: cell-based; conditions: Homo sapiens, BEAS-2B, 48 h, NQO1 specific activity induction, 48 hours with compound
In short: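 Cells plated overnight at 37° C., 5% CO2, then exposed to compound for 48 hours. NQO1 activity read in crude lysates with MTT cocktail as kinetic absorbance at 570 nm over 30 minutes. pEC50 from Delta OD/min versus log concentration with a 3-parameter fit.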

[2] = system: rats on a choline-deficient L-amino acid-defined diet; conditions: cited from earlier work
[3] = system: COPD macrophages and alveolar macrophages from cigarette smoke-exposed mice; conditions: cited from earlier work
[4] = system: rats in a cerebral ischemia-reperfusion model; conditions: cited from earlier work
[5] = system: NRF2 wild-type but not KO mice; conditions: after administration of tBHQ; cited from earlier work

Structure (SMILES)	EC50 [1]	other results
CC[C@H]1Cc2cccnc2CN(Cc2cc([C@H](OCc3cn(CC)nn3)C(C)(C)C(=O)O)ccc2C)C1 [Example 116, (S)-methyl 3-((1-ethyl-1H-1,2,3-triazol-4-yl)-methoxy)-3-(3-(((S)-6-ethyl-6,7-dihydro-5H-pyrido[2,3-c]azepin-8(9H)-yl)methyl)-4-methylphenyl)-2,2-dimethyl-propanoic acid, trifluoroacetate]	10 to 100 nM	
CC[C@@H]1CN(Cc2cc([C@@H](OCc3cn(CC)nn3)C(C)(C)C(=O)O)ccc2C)Cc2ccccc2O1 [Example 117, (R)-methyl 3-((1-ethyl-1H-1,2,3-triazol-4-yl)-methoxy)-3-(3-(((R)-2-ethyl-2,3-dihydro-benzo[f][1,4]oxazepin-4(5H)-yl)methyl)-4-methylphenyl)-2,2-dimethyl-propanoic acid, trifluoroacetate]	10 to 100 nM	
CC[C@@H]1CN(Cc2cc([C@H](OCc3cn(CC)nn3)C(C)(C)C(=O)O)ccc2C)Cc2ccccc2O1 [Example 118]	1000 to 10000 nM	
CC[C@H]1Cc2ccccc2S(=O)(=O)N(Cc2cc([C@@H](OCc3cn(C)nn3)C(C)(C)C(=O)O)ccc2C)C1 [Example 119, (R)-3-(3-(((S)-4-Ethyl-1,1-dioxido-4,5-dihydrobenzo[f][1,2]thiazepin-2(3H)-yl)methyl)-4-methylphenyl)-2,2-dimethyl-3-((1-methyl-1H-1,2,3-triazol-4-yl)methoxy)propanoic acid]	< 1 nM	
CC[C@@H]1CN(Cc2cc([C@@H](OCc3cn(C)nn3)C(C)(C)C(=O)O)ccc2C)S(=O)(=O)c2ccccc2O1 [Example 120, (R)-3-(3-(((R)-4-Ethyl-1,1-dioxido-3,4-dihydro-2H-benzo[b][1,4,5]oxathiazepin-2-yl)methyl)-4-methylphenyl)-2,2-dimethyl-3-((1-methyl-1H-1,2,3-triazol-4-yl)methoxy)propanoic acid]	< 1 nM	
CC[C@@H]1CN(Cc2cc([C@@H](OCc3cn(C)nn3)C(C)(C)C(=O)O)ccc2C)S(=O)(=O)c2ncccc2O1 [Example 121, (R)-3-(3-(((R)-4-Ethyl-1,1-dioxido-3,4-dihydro-2H-pyrido[3,2-b][1,4,5]oxathiazepin-2-yl)methyl)-4-methylphenyl)-2,2-dimethyl-3-((1-methyl-1H-1,2,3-triazol-4-yl)methoxy)propanoic acid]	1 to 10 nM	
O=C(NCc1ccccn1)Nc1nnc(-c2ccco2)o1 [NK-252]		progression of histologic abnormalities, especially hepatic fibrosis [2]: significantly attenuated
C[S+]([O-])CCCCN=C=S (centres unmarked) [Sulforaphane]		expression of Macrophage Receptor with Collagenous structure (MARCO) [3]: increases the expression of Macrophage Receptor with Collagenous structure (MARCO)
Cc1c(-c2cnccn2)ssc1=S [oltipraz]		progression of histologic abnormalities, especially hepatic fibrosis [2]: significantly attenuated
CC(C)(C)c1cc(O)ccc1O [tert-butylhydroquinone]		cortical damage [4]: reduced cortical damage; cortical glutathione levels [5]: increased in NRF2 wild-type but not KO mice
